Reference: ChEMBL document CHEMBL1201862, “PubChem BioAssay data set” (2004)
Calls of active or inactive are those of the source. Where a SMILES comes first, the peptide text is derived from it. The star is where a group is joined. CH2Cl = ClC*

Tests used:
Interleukin-8 [1] = target: T1, Interleukin-8 (Homo sapiens, UniProt P10145); assay: Dose Response confirmation of uHTS small molecule hits for cystic fibrosis induced NFkb Inhibitors in a PAF-induced IL8 counterscreen.; type: functional; settings: read-out: IC50_Mean
T1 sequence (P10145 whole entry): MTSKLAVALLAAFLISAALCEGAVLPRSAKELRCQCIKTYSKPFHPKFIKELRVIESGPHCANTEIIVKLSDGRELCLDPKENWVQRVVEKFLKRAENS

Interleukin-8 [2] = target: T1, Interleukin-8; assay: Dose Response confirmation of uHTS small molecule hits for cystic fibrosis induced NFkb Inhibitors in a TNFa-induced IL8 counterscreen.; type: functional; settings: read-out: IC50_Mean
[3] = target: T2, Latent membrane protein 1 (Human herpesvirus 4 (strain B95-8), UniProt P03230); assay: TES1-eGFP NF-kB reporter inhibition versus Tet-On dsRED, dose response, selectivity assay for LMP1 NF-kB inhibitor project, imaging, HEK293T, dual-color eGFP/dsRED, cherry-picks (AID 588398); type: functional, cell-based
T2 sequence (P03230 whole entry): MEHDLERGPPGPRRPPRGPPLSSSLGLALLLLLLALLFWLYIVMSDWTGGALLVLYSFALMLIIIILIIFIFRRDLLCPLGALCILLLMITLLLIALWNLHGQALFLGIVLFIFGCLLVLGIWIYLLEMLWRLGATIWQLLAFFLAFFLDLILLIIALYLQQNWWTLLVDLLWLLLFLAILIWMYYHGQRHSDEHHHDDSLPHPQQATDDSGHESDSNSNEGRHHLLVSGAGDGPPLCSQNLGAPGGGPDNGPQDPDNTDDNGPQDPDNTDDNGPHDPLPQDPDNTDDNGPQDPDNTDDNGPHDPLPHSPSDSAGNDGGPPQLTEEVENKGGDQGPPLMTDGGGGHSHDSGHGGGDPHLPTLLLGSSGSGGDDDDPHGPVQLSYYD

HEK293 = assay: inhibitors of LMP1-driven NF-kB reporter, dose response, cell-based, HEK293, luciferase, cherry-pick (AID 588343); type: functional; settings: Homo sapiens
Vero = assay: host cell cytotoxicity of antiviral hits, dose response, cytotoxicity control for West Nile virus antiviral project, secondary assay (AID 1650); type: functional; settings: Chlorocebus sabaeus
[4] = Luminescence Cell-Based Dose Retest to Confirm Inhibitors of Cancer Stem Cells. [Related pubchem assays (depositor defined):AID2717, AID2721]; type: functional; settings: Homo sapiens
Protein Wnt-3a = Protein Wnt-3a (Mus musculus, UniProt P27467); assay: Wnt3a-driven reporter signaling inhibition, dose response, selectivity assay for Gli-SUFU antagonist project, Wnt-LIGHT cells, luminescence (AID 651570); type: functional; settings: read-out: IC50_Mean;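 also: Wnt-LIGHT reporter cells stimulated with conditioned medium from Wnt3a-producing cells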
INS1 = assay: beta cell apoptosis inhibitors, cytokine rescue, dose response, luminescence, retest (AID 449756); type: functional, cell-based; settings: Rattus norvegicus;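 also: cell death triggered by IL-1 beta plus TNF-alpha plus IFN-gamma mixture; protective hits raise ATP signal compared with cytokine alone wells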
BJ [5] = assay: cytotoxicity toward BJ-TERT fibroblasts, dose response, cell-based, RAS-independent, luminescence (AID 1933); type: functional; settings: Homo sapiens
BJ [6] = assay: cells; type: functional, cell-based; settings: Homo sapiens
[7] = cytotoxicity toward DRD oncogenic fibroblasts, dose response, cell-based, non-viral oncogenic, luminescence (AID 1934); type: functional; settings: Homo sapiens
cells = type: functional, cell-based
BJ [8] = assay: cytotoxicity toward BJ-TERT-LT-ST fibroblasts, dose response, cell-based, RAS-independent, luminescence (AID 1935); type: functional; settings: Homo sapiens;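 also: BJ fibroblasts immortalized with TERT plus LT and ST oncogenes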
[9] = target: T3, Sentrin-specific protease 6 (Homo sapiens, UniProt Q9GZR1); type: functional;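 also: Luminescence-based dose-response confirmatory assay of SENP6 inhibition, following up an ultra-high-throughput screen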
T3 sequence (Q9GZR1 whole entry): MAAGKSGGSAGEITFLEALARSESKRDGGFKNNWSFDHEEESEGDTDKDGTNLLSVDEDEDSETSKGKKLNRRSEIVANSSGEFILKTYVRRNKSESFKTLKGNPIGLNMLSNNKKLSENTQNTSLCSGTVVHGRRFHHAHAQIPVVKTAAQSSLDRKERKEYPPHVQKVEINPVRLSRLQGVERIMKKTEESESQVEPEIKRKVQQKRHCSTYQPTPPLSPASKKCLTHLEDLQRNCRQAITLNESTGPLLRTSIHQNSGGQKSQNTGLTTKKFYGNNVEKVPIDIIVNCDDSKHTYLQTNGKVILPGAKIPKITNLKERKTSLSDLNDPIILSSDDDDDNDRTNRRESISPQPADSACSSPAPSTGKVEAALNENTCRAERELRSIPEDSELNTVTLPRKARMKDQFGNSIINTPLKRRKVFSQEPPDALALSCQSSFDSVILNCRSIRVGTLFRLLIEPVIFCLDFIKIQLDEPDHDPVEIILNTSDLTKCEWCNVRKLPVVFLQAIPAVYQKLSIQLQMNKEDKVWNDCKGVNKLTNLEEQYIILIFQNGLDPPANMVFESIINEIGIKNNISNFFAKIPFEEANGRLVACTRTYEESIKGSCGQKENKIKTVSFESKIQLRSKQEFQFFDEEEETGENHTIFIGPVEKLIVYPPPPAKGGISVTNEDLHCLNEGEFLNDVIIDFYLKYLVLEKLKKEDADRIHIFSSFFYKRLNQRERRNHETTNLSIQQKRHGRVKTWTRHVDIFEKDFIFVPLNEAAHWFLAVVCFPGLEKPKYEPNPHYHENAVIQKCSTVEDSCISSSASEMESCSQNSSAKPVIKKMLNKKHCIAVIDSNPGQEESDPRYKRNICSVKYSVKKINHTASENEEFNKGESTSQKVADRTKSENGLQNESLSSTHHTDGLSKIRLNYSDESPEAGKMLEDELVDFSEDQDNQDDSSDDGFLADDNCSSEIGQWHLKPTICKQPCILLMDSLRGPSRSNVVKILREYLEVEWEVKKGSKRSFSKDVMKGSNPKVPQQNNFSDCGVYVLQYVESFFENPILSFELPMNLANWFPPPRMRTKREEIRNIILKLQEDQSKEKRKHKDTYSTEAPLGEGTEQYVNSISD

[10] = target: T4, Sentrin-specific protease 8 (Homo sapiens, UniProt Q96LD8); type: functional;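 also: luminescence read-out of SENP8 inhibition, dose-response confirmation following an ultra-high-throughput screen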
T4 sequence (Q96LD8 whole entry): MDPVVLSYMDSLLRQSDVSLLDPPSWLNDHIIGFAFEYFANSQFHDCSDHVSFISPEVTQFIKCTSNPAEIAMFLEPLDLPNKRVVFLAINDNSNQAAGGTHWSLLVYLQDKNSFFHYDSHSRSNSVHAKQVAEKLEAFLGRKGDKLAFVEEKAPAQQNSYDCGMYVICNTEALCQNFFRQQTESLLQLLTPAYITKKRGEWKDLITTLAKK

Caspase-3 = target: T5, Caspase-3 (Homo sapiens, UniProt P42574); type: functional;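 also: Dose-response selectivity test against caspase-3 for candidate inhibitors of sentrin-specific proteases (SENPs)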
T5 sequence (P42574 whole entry): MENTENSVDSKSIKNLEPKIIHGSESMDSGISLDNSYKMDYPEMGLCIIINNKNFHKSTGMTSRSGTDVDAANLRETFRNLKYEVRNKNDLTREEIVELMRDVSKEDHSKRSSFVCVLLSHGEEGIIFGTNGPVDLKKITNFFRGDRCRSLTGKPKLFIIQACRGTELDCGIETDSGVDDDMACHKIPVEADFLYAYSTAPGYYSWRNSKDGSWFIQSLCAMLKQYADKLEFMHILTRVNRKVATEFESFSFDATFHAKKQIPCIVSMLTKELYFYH

[11] = target: T6, Sentrin-specific protease 7 (Homo sapiens, UniProt Q9BQF6); type: functional;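 also: Luminescence-based dose-response confirmation of ultra-high-throughput screening hits, measuring inhibition of SENP7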
T6 sequence (Q9BQF6 whole entry): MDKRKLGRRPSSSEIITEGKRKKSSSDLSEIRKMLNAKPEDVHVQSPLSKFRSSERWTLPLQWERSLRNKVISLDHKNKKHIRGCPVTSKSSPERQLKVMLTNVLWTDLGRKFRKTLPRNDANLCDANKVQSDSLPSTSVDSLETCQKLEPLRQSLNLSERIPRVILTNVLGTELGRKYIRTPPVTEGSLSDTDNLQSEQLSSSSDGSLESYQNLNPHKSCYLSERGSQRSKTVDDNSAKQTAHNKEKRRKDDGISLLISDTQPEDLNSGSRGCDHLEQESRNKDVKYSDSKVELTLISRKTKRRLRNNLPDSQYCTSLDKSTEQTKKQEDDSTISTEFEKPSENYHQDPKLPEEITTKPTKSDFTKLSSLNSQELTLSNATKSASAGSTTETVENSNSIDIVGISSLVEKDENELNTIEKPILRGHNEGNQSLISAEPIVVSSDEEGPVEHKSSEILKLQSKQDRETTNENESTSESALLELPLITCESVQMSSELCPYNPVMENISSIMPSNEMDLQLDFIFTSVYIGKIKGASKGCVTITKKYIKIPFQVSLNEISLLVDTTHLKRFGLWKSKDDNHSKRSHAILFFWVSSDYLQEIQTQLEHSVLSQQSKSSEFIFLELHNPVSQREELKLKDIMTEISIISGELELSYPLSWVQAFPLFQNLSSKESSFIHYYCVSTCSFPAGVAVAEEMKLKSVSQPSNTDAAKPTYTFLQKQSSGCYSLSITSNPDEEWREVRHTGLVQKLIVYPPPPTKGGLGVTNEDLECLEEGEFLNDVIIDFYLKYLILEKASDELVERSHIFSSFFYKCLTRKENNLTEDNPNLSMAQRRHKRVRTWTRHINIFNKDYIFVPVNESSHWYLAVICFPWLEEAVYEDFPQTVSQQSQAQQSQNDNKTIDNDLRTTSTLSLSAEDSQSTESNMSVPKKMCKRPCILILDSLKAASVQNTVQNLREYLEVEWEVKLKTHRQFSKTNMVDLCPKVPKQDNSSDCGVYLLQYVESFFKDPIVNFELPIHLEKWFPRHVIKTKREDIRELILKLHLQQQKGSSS

Chain of Protein Wnt-3a (P27467 whole entry): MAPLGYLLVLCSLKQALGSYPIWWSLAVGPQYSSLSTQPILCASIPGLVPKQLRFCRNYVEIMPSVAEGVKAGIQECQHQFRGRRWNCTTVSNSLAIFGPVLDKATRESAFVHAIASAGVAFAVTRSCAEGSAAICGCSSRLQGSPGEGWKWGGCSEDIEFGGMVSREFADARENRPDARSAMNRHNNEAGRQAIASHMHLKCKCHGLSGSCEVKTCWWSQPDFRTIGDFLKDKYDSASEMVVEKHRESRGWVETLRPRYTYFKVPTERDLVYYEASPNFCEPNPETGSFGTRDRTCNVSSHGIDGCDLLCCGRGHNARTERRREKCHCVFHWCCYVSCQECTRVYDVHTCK

## CC(=O)NC(CC(C)C)C(=O)NC(Cc1ccccc1)C(=O)CCl (stereo not drawn) (Ac-Leu-Phe-CH2Cl; configuration not given here)
Interleukin-8 [1]
  IC50: 1.04 µM (active)
Interleukin-8 [2]
  IC50: 3.63 µM (active)

## O=C(Nc1cc(C(F)(F)F)cc(C(F)(F)F)c1)Nc1cnn(-c2ccc([N+](=O)[O-])cc2)c1C(F)(F)F
[3]
  AC50: 3.91 µM (active)
HEK293
  AC50: 1.12 µM (active)
Vero
  CC50: 2.94 µM (active)
[4]
  AC50: 0.442 µM (active)

## Nc1ccc(Br)cc1-c1nc2ccccc2[nH]c1=O
Protein Wnt-3a
  IC50: 0.449 µM (active)

## COc1ccc2[nH]c(C(=O)N/N=C/c3ccc(O)cc3O)cc2c1
[3]
  AC50: 20.3 µM (active)
INS1
  AC50: 0.694 µM (active)
HEK293
  AC50: 7.59 µM (active)
BJ [5]
  EC50: 12.2 µM (active)
BJ [6]
  EC50: 10.8 µM (active)
[7]
  EC50: 9.2 µM (inconclusive)
cells
  EC50: 9.59 µM (active)
BJ [8]
  EC50: 10.1 µM (inconclusive)

## Cc1ccc(-c2cnn(-c3cccc([N+](=O)[O-])c3)c2N)cc1
[9]
  IC50: > 100 µM (inactive)
[10]
  IC50: > 100 µM (inactive)
Caspase-3
  IC50: 23.7 µM (active)
[11]
  IC50: 8.04 µM (active)
